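These data come from cells grown in 96-well plates and exposed to compound for 48 hours at five concentrations. TGI denotes the concentration required for complete inhibition of growth.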
Assays:
Test in all cases: growth of human tumour cells (NCI), 48 h
HCT-116 colon = system: HCT-116 colon
NCI-H23 lung = system: NCI-H23 lung
SK-MEL-5 melanoma = system: SK-MEL-5 melanoma
OVCAR-4 ovarian = system: OVCAR-4 ovarian
HCC-2998 colon = system: HCC-2998 colon
K-562 leukemia = system: K-562 leukemia
BT-549 breast = system: BT-549 breast
SK-MEL-2 melanoma = system: SK-MEL-2 melanoma
NCI-H460 lung = system: NCI-H460 lung
SK-MEL-28 melanoma = system: SK-MEL-28 melanoma
OVCAR-3 ovarian = system: OVCAR-3 ovarian

SMILES | TGI (HCT-116 colon) | TGI (NCI-H23 lung) | TGI (SK-MEL-5 melanoma) | TGI (OVCAR-4 ovarian) | TGI (HCC-2998 colon) | TGI (K-562 leukemia) | TGI (BT-549 breast) | TGI (SK-MEL-2 melanoma) | TGI (NCI-H460 lung) | TGI (SK-MEL-28 melanoma) | TGI (OVCAR-3 ovarian)
CCCC(=O)NC(Nc1ccc(F)cc1)(C(F)(F)F)C(F)(F)F | > 100 µM | > 100 µM | > 100 µM | > 74.2 µM | > 100 µM | > 100 µM | > 100 µM | 67 µM | > 100 µM | > 100 µM | > 100 µM
CN(C)CC1CCC/C(=C\c2ccc(OC(=O)/C=C/c3ccc(Cl)c(Cl)c3)cc2)C1=O (stereo unspecified) | 14.5 µM | 14.4 µM | 12.2 µM | > 60.3 µM | 10.1 µM | > 100 µM | 8.01 µM | 44.8 µM | 23.2 µM | 28.1 µM | 14.6 µM
COc1ccc2c(c1)c1nn(CCN3CCCCC3)c3ccc4c(=O)n(CCN(C)C)c(=O)n2c4c13 | 0.0213 µM | 0.627 µM | 0.283 µM | 0.0158 µM | 0.03 µM | 0.6 µM | 1.08 µM | 0.271 µM | < 0.0216 µM | 0.596 µM | 0.344 µM
CCOC(=O)c1[nH]c2cccc3c2c1CC[C@H](NC(=O)C(F)(F)F)C3=O | > 100 µM | > 100 µM | > 100 µM | 80.5 µM | > 100 µM | > 100 µM | > 100 µM | > 100 µM | > 100 µM | 0.0458 µM | > 100 µM
COC1(c2cccs2)c2ccccc2C(OC)(c2cccs2)c2ccccc21 (stereo unspecified) | > 100 µM | > 100 µM | > 100 µM | > 100 µM | > 100 µM | > 100 µM | > 100 µM | > 100 µM | > 100 µM | > 100 µM | > 100 µM
COC12C=CC(C=C1C#N)CC2 (stereo unspecified) (tested in a mixture with another compound) | > 100 µM | > 100 µM | > 100 µM | > 100 µM | > 100 µM | > 100 µM | > 100 µM | > 100 µM | > 100 µM | > 100 µM | > 100 µM
CN(C)CCNC(=O)c1ccc(Cl)c2cc3ccccc3nc12 | 5.48 µM | 2.08 µM | 2.44 µM | 3.34 µM | 3.52 µM | 12.3 µM | 7.82 µM | 4.94 µM | 3.9 µM | 4.03 µM | 6.88 µM
O=C1CS(=O)(=O)C(c2cccc(Oc3ccccc3)c2)N1c1ccccc1 (stereo unspecified) | 30.8 µM | 94.6 µM | 29.3 µM | > 100 µM | 35 µM | 60.1 µM | 49.1 µM | 31.5 µM | 38.4 µM | 85.4 µM | 55.1 µM
COC(=O)C1=CON2C3CC4CC(C3)CC(C4)C12C (stereo unspecified) | > 100 µM | > 100 µM | > 100 µM | > 100 µM | > 100 µM | > 100 µM | > 100 µM | > 100 µM | > 100 µM | > 100 µM | > 100 µM
CC(=O)OC(C)(C)CCC(=O)[C@](C)(O)[C@H]1[C@H](O)C[C@@]2(C)[C@@H]3CC=C4C(C)=C(OC5OC(CO)C(O)C(O)C5O)C(=O)C[C@@H]4[C@]3(C)C(=O)C[C@]12C (stereo partly specified) | > 100 µM | > 100 µM | > 100 µM | > 100 µM | > 100 µM | > 100 µM | > 100 µM | > 100 µM | > 100 µM | > 100 µM | > 100 µM
CCCN(CCC)C1CCc2c(ccc3cc[nH]c23)C1 (stereo unspecified) | > 100 µM | > 100 µM | 41.4 µM | > 100 µM | 59.9 µM | > 100 µM | > 100 µM | > 100 µM | > 100 µM | 89.4 µM | > 100 µM

— PubChem BioAssay (NCI)
